# From patent US6418341B1, “Needle electrode assembly for electroporation mediated delivery of genes and drugs” (Genetronics, Inc., priority 1993, dated 2002)
# Entries after “also recorded” stand apart in the source; their conditions may differ. Marks after values point to notes of the source that are not given here.
# What was measured:
# [1] = test system: poorly differentiated human pancreatic tumor (Panc-3); test: Electrochemotherapy (ECT) of Panc-3 tumors xenografted subcutaneously in nude mice; format: in vivo; settings: for Overall outcome of the electrochemotherapy protocol: needle array electrodes
# Description: The following examples illustrate the use of electrochemotherapy (ECT) of a poorly differentiated human pancreatic tumor (Panc-3) xenografted subcutaneously on the left flank of nude mice. The single treatment procedure involved injection of bleomycin (0.5 units in 0.15 ml saline) intratumorally, using fanning, as described herein followed by application of six square wave electrical pulses, ten minutes later, using proprietary needle array electrodes arranged along the circumference of a circle 1 cm in diameter. Needle array of variable diameters (e.g., 0.5 cm, 0.75 cm and 1.5 cm can also be used to accommodate tumors of various sizes. Stoppers of various heights can be inserted at the center of the array to make the penetration depth of the needles into the tumor variable. A built-in mechanism allowed switching of electrodes for maximum coverage of the tumor by the pulsed field. The electrical parameters were: 1300 V/cm and 6×99 μs pulses spaced at 1 sec interval.
# The tumor cell line Panc-3, a poorly differentiated adenocarcinoma cell line of the pancreas, was supplied by AntiCancer, Inc., San Diego. For ECT experiments, tissue taken from the stock mice, where the tumor fine was maintained, was thawed and cut into very small pieces about 1 mm each, and 8-10 pieces were surgically xenografted in a subcutaneous sac made in left flank of nude mice, and then closed with 6.0 surgical suture. After the average tumor size reached about 5 mm, mice with palpable tumors were divided randomly, 10 mice for control group (D+E−; D=Drug, E=Electric field) and 10 mice for ECT treatment namely bleomycin injection followed by pulsing (D+E+) from a BTX Square Wave T820 Generator. The tumor dimensions were measured and the tumor volume calculated using the formula: […]
# where a, b, and c are, respectively, the length, width and thickness of the tumor. 0.5 units Bleomycin (Sigma Chemicals) was dissolved in 0.15 ml of 0.9% NaCl and was injected in each mice intratumorally by fanning for both the control (D+E−) and the treated (D+E+) groups. Ten minutes after the injection, each mouse in the D+E+ group was pulsed from a BTX T820 square wave electroporator with a set of needle array electrodes as described in the present invention. Electrical parameters used were as follows: field strength 1300 V/cm, 6 pulses of 99 μs each, at 1 sec interval.
# (§1) The mice were monitored every day for mortality and any signs of a diseased state were noted. The tumor dimensions were measured at regular intervals and tumor growth regression/progression monitored. Another set of nude mice with xenografts of non-small cell lung cancer line was also treated by the same procedure as for the Panc-3 tumors.
# (§2) The Panc-3 and NSCLC models were utilized with the drug neocarcinostatin (NCS) following the same procedures as outlined above. […] It was believed that due to the low isoelectric point of NCS, electrostatic interaction prevented the drug from entering the tumor cell. Therefore, the experiment was repeated by pulsing first and injecting NCS post-pulse.
# [2] = test system: non-small cell lung cancer cell line (NSCLC), 177; test: Electrochemotherapy (ECT) of non-small cell lung cancer xenografts in nude mice; format: in vivo; settings: for Overall outcome of the electrochemotherapy protocol: needle array electrodes
# Description: as §1, §2
# [3] = P = partition coefficient between octanol and water; cited from earlier work
# cancerous tumors = settings: low dose injected, tumors then electroporated with square wave pulses; cited from earlier work
# [4] = ECT, 10 mice treated, 28 days after treatment
# [5] = ECT, 10 mice treated, 35 days after treatment
# [6] = ECT, 10 mice treated, 57 days after treatment
# [7] = ECT, 10 mice treated, 77 days after treatment
substance,measurement,setting,value
bleomycin,Histological analysis of tumor samples,[1]; D+E+ group (ECT),severe necrosis of the tumor region; also recorded: necrotic tumor cell ghosts
same,Cases with partial regression (80% reduction in tumor volume),[1]; ECT (D+E+),30%
same,Necrosis and edema at the treatment site,[1]; ECT (D+E+),severe necrosis and edema in nearly all the mice
same,Mice with tumor regrowth,"[1]; ECT (D+E+), 35 days after treatment, much slower growth rate than control",20%
same,Cases with complete regression with no palpable tumor,"[1]; ECT (D+E+), 77 days after the single treatment",60%
same,Time after which essentially no detectable tumor,"[1]; ECT (D+E+), FIG. 10",approximately 24 days
same,"CR (100%), Complete Regression, number of mice",[1]; [4],6
same,"NR (%), No Response, number of mice",[1]; [4],1
same,"PR (80%), Partial Regression, number of mice",[1]; [4],3
same,"CR (100%), Complete Regression, number of mice",[1]; [5],6
same,"NR (%), No Response, number of mice",[1]; [5],1
same,"Tumor regrowth, number of mice",[1]; [5],2
same,"CR (100%), Complete Regression, number of mice",[1]; [6],6
same,"NR (%), No Response, number of mice",[1]; [6],1
same,"CR (100%), Complete Regression, number of mice",[1]; [7],6
same,"NR (%), No Response, number of mice",[1]; [7],1
same,"Death, number of mice","[1]; ECT, 10 mice treated, 77 days after treatment, 1 died after retreatment, 1 after 64 days survival",2*
same,Effect of intratumoral injection with larger volume combined with fanning,[1]; compared to the conventional mode of injecting the drug prior to pulsing,very effective
same,Change of tumor volume,"[1]; control group D+E- (drug, no electrical field)",increased dramatically
same,Tumor volume (mm^3) C1,"[1]; control mouse C1 (D+E-), 1 day after treatment",206.979 mm^3
same,Tumor volume (mm^3) C1,"[1]; control mouse C1 (D+E-), 8 days after treatment",394.786 mm^3
same,Tumor volume (mm^3) C1,"[1]; control mouse C1 (D+E-), 15 days after treatment",557.349 mm^3
same,Tumor volume (mm^3) C1,"[1]; control mouse C1 (D+E-), 18 days after treatment",939.582 mm^3
same,Tumor volume (mm^3) C1,"[1]; control mouse C1 (D+E-), 24 days after treatment",1391.057 mm^3
same,Tumor volume (mm^3) C1,"[1]; control mouse C1 (D+E-), 28 days after treatment",1628.631 mm^3
same,Tumor volume (mm^3) C1,"[1]; control mouse C1 (D+E-), 35 days after treatment",2619.765 mm^3
same,Tumor volume (mm^3) C1,"[1]; control mouse C1 (D+E-), 38 days after treatment",2908.912 mm^3
same,Tumor volume (mm^3) C1,"[1]; control mouse C1 (D+E-), 43 days after treatment",3708.571 mm^3
same,Tumor volume (mm^3) C1,"[1]; control mouse C1 (D+E-, bleomycin 0.5 units intratumoral, no pulsing), 0 days after treatment",138.746 mm^3
same,Tumor volume (mm^3) C2,"[1]; control mouse C2 (D+E-), 1 day after treatment",179.82 mm^3
same,Tumor volume (mm^3) C2,"[1]; control mouse C2 (D+E-), 8 days after treatment",451.787 mm^3
same,Tumor volume (mm^3) C2,"[1]; control mouse C2 (D+E-), 15 days after treatment",798.919 mm^3
same,Tumor volume (mm^3) C2,"[1]; control mouse C2 (D+E-), 18 days after treatment",881.752 mm^3
same,Tumor volume (mm^3) C2,"[1]; control mouse C2 (D+E-), 24 days after treatment",1406.98 mm^3
same,Tumor volume (mm^3) C2,"[1]; control mouse C2 (D+E-), 28 days after treatment",1474.21 mm^3
same,Tumor volume (mm^3) C2,"[1]; control mouse C2 (D+E-), 35 days after treatment",2330.31 mm^3
same,Tumor volume (mm^3) C2,"[1]; control mouse C2 (D+E-), 38 days after treatment",2333.967 mm^3
same,Tumor volume (mm^3) C2,"[1]; control mouse C2 (D+E-), 43 days after treatment",5381.759 mm^3
same,Tumor volume (mm^3) C2,"[1]; control mouse C2 (D+E-, bleomycin 0.5 units intratumoral, no pulsing), 0 days after treatment",148.94 mm^3
same,Overall outcome of the electrochemotherapy protocol,[1],effectively treated
same,Mice with no response,[1]; treated by ECT (D+E+),10%
same,Mice with nearly complete tumor regression,"[1]; treated by ECT (D+E+), after 28 days",90%
same,Change of tumor volume,"[1]; treated group D+E+, after a slight initial increase due to edema",substantial reduction in the tumor volume
same,Tumor volume (mm^3) T1,"[1]; treated mouse T1 (D+E+), 1 day after treatment",210.95 mm^3
same,Tumor volume (mm^3) T1,"[1]; treated mouse T1 (D+E+), 8 days after treatment",104.55 mm^3
same,Tumor volume (mm^3) T1,"[1]; treated mouse T1 (D+E+), 15 days after treatment",113.21 mm^3
same,Tumor volume (mm^3) T1,"[1]; treated mouse T1 (D+E+), 18 days after treatment",161.73 mm^3
same,Tumor volume (mm^3) T1,"[1]; treated mouse T1 (D+E+), 24 days after treatment",41.56 mm^3
same,Tumor volume (mm^3) T1,"[1]; treated mouse T1 (D+E+), 28 days after treatment",0 mm^3
same,Tumor volume (mm^3) T1,"[1]; treated mouse T1 (D+E+), 35 days after treatment",0 mm^3
same,Tumor volume (mm^3) T1,"[1]; treated mouse T1 (D+E+), 38 days after treatment",0 mm^3
same,Tumor volume (mm^3) T1,"[1]; treated mouse T1 (D+E+), 43 days after treatment",0 mm^3
same,Tumor volume (mm^3) T1,"[1]; treated mouse T1 (D+E+, bleomycin 0.5 units intratumoral + 1300 V/cm 6x99 μs pulses), 0 days after treatment",123.11 mm^3
same,Tumor volume (mm^3) T2,"[1]; treated mouse T2 (D+E+), 1 day after treatment",252.72 mm^3
same,Tumor volume (mm^3) T2,"[1]; treated mouse T2 (D+E+), 8 days after treatment",211.11 mm^3
same,Tumor volume (mm^3) T2,"[1]; treated mouse T2 (D+E+), 15 days after treatment",226.966 mm^3
same,Tumor volume (mm^3) T2,"[1]; treated mouse T2 (D+E+), 18 days after treatment",246.91 mm^3
same,Tumor volume (mm^3) T2,"[1]; treated mouse T2 (D+E+), 24 days after treatment",47.2228 mm^3
same,Tumor volume (mm^3) T2,"[1]; treated mouse T2 (D+E+), 28 days after treatment",0 mm^3
same,Tumor volume (mm^3) T2,"[1]; treated mouse T2 (D+E+), 35 days after treatment",0 mm^3
same,Tumor volume (mm^3) T2,"[1]; treated mouse T2 (D+E+), 38 days after treatment",0 mm^3
same,Tumor volume (mm^3) T2,"[1]; treated mouse T2 (D+E+), 43 days after treatment",0 mm^3
same,Tumor volume (mm^3) T2,"[1]; treated mouse T2 (D+E+, bleomycin 0.5 units intratumoral + 1300 V/cm 6x99 μs pulses), 0 days after treatment",178.37 mm^3
same,Result of ECT treatment on tumor volume,"[2]; ECT as for Panc-3, FIGS. 12a, 12b",very encouraging results
same,Overall outcome of the electrochemotherapy protocol,[2],effectively treated
same,Tumor after retreatment of a recurred tumor,"[2]; one mouse retreated at day 27, 7 days after retreatment (FIG. 13)",no evidence of tumor
same,log P,[3],very negative
same,Tumor response,cancerous tumors,reduction or complete remission of the tumors
neocarcinostatin [NCS],Post-pulse compared with pre-pulse administration,[1]; FIGS. 14a and b versus 14c and d,more effective than pre-pulse administration
same,Overall outcome of the electrochemotherapy protocol,[1],effectively treated
same,Final versus initial tumor volume,"[1]; post-pulse dosing, day 13, 7 mice, mouse ID 1, 2, 4 and 7, appeared to be due to edema (FIG. 14c)",an increase in tumor volume was observed
same,Change of tumor volume,"[1]; post-pulse dosing, day 23, separate group of 5 mice (FIG. 14d)",all mice showed a marked reduction in tumor volume
same,Reduction of tumor size,[1]; pre-pulse dosing (FIG. 14a),not effective in reducing tumor size at all
same,Overall outcome of the electrochemotherapy protocol,[2],effectively treated
same,Reduction of tumor size,[2]; pre-pulse dosing (FIG. 14b),not effective in reducing tumor size at all
